Measurements taken from US11701358B2, “Methods of inhibiting serum glucocorticoid induced kinase 1 (SGKI) as a treatment for salt and water balance diseases” (Indiana University Research and Technology Corporation, priority 2017, dated 2023).
“Also recorded” adds a separate entry of the source.

What was measured:
[1] = test system: Wpk rat model (TMEM67-/-) of hydrocephalus; assay: Head dimensions in homozygous Wpk rat model of hydrocephalus; type: in vivo; conditions: homozygous Wpk rats
Method: The effectiveness of SI 113 was tested in a genetic model of hydrocephalus, the Wpk rat model. In this model, the homozygous animals (TMEM67−/−) carry a single point mutation in TMEM67, one of a complex of proteins involved in the formation of the primary cilium. The homozygous affected animals have severe hydrocephalus and renal cystic disease. They typically survive for 18-21 days after birth, and the developing hydrocephalus can be monitored by measuring the head size in a manner analogous to measuring head sizes in human children.
In FIG. 1, the head sizes in both the horizontal and vertical dimensions are shown.

[2] = test system: epithelial sodium channel (ENaC); assay: Short-circuit current, basal ENaC activity in mCCD cells; type: cell-based, mouse; conditions: mCCD cell monolayer, Ussing chamber
Text: The mouse cortical collecting duct (mCCD) cell line is a continuous, high resistance cell line that has the characteristics of the principal cells that line the kidney distal tubules. In this segment of the tubules, a transport protein, the epithelial sodium channel (ENaC), is responsible for the reabsorption of sodium from the kidney filtrate and the return of this ion to the bloodstream. As the concentration of sodium increases in the blood, the increased osmotic concentration will cause a compensatory movement of water from cells all over the body into the blood and an increase in blood volume and blood pressure. ENaC is an important transport protein and its function plays a major role in the regulation of whole body salt and water balance. Increases in the activity of ENaC can cause hypertension and many hypertension medications target the intracellular signaling pathways that culminate in the activation of ENaC. For example, ENaC is inhibited by the diuretic, amiloride.
The mCCD cell line was grown in tissue culture media consisting of Dulbecco's Minimal Essential media (DMEM):Hams F12 supplemented with 5% fetal bovine serum and penicillin (100 U/ml) and streptomycin ([…]). Cultured cells in both flasks and on Transwells had the media changed thrice weekly. […] In the current Example, the basal activity of ENaC in the cells is the parameter that is monitored.

[3] = test system: PCP-R porcine choroid plexus cell line; assay: Short-circuit current, TRPV4 agonist-stimulated transepithelial ion transport in PCP-R cells; type: cell-based; conditions: PCP-R cells in Ussing chamber, pretreatment at t=-10 minutes, agonist at t=0
Method: PCP-R (porcine choroid plexus, high resistance) cell line was grown to confluence on permeable Transwell supports. The PCP-R cell line is grown in tissue culture media consisting of Dulbecco's Minimal Essential media (DMEM) supplemented with 10% fetal bovine serum and penicillin (100 U/ml) and streptomycin ([…]). Cultured cells in both flasks and on Transwells had the media changed thrice weekly. After attaining a high resistance phenotype (days 10-12 after seeding on the Transwells), the cultures were removed from the plastic supports and mounted in an Ussing chamber for electrophysiological measurements (short-circuit current (SCC)) of net transepithelial ion transport. A negative deflection is indicative of anion absorption (CSF to blood) and/or cation secretion (blood to CSF). GSK1016797 is an agonist of TRPV4, an osmo- and mechano-sensitive channel which, when stimulated, allows Ca^2+ to enter the cells. The increased intracellular Ca^2+ secondarily stimulates Ca^2+-sensitive channels. In the case of the PCP-R cells, this process stimulates Ca^2+-sensitive K^+ channels causing the secretion of K^+ and, secondarily, water into the cerebrospinal fluid. […] All cultures were stimulated with GSK1016797 at time t=0.

[4] = test system: heterozygous Wpk rat model of hydrocephalus; assay: MRI of lateral ventricular volumes in heterozygous Wpk rat model; type: in vivo; conditions: heterozygous Wpk rats, 8 mg/kg BW i.p. daily for 8 days, versus vehicle, P=0.039 Mann-Whitney
Method: FIG. 4 depicts MRI quantification of the effects of SI113 on hydrocephalus in the heterozygous Wpk rat model. The bars represent the difference in volumes of the lateral ventricles measured at postnatal (P) day 7 and P15. The volumes were measured by MRI before treatment with vehicle or SI 113 (8 mg/kg BW; i.p. daily) and again after 8 days of treatment. The difference in the volume for each of the animals was calculated and the averages ±SEM are shown in the bar graph. The number of animals in each study is noted as n. Approximately equal numbers of male and female animals were used.
The Wpk rat model is unique in that the genetic defect causes a severe hydrocephalus in the homozygous affected animals (see FIG. 1) and a mild hydrocephalus in the heterozygous animals (see FIG. 4). The heterozygous animals live for at least year. […] In this model the hydrocephalus is not severe enough to change head dimensions so the effect of the SI113 on the hydrocephalus was measured using MRI. […] Volumes of interest on lateral ventricles were determined from threshold based image segmentation of native cerebrospinal fluid contrast, and images were quantified for lateral ventricular volumes using Analyze 12.0. The MRIs were conducted on each animal on day 7 and day 15 and the differences in lateral ventricular volumes were calculated (FIG. 4).

SMILES | head dimensions of treated hydrocephalic animals compared with wild-type animals ([1]; after treatment post-natal day 7 to day 15) | head dimensions (horizontal and vertical) of hydrocephalic animals ([1]; treatment post-natal day 7 to day 15, versus vehicle, *p=0.009, # p=0.03, 1-tailed t-test) | short-circuit current (SCC), transepithelial sodium transport via ENaC [2] | response (short-circuit current) to TRPV4 agonist GSK1016797 [3] | hydrocephalus, difference in lateral ventricular volumes between P7 and P15 by MRI [4]
OCCNc1nc(NCCc2ccccc2)c2cnn(/C=C/c3ccccc3)c2n1 [SI 113, 2-({1-(2-phenylethenyl)-4-[(2-phenylethy)amino]-1H-pyrazolo[3,4-d]pyrimidin-6-yl}amino)ethanol] | not statistically different than the wild-type animals | significantly decreased the head dimensions | caused a decrease in the SCC | completely blocked | statistically significant difference; also recorded: effectively decreased the hydrocephalus
N=C(N)NC(=O)c1nc(Cl)c(N)nc1N [amiloride, reference compound] |  |  | strongly inhibited |  | 
